row,SMILES,melting point
1,CC(C)c1noc(-c2ncn3c2nc(N2CCOCC2)c2cc(F)ccc23)n1,262 to 264 °C
2,Cc1c(C#N)sc(N=Nc2c(NCC(C)O)nc(NCC(C)O)c(C#N)c2C)c1C#N (stereo not drawn),268 to 269 °C
3,COC(=O)CN(C1c2cc(Cl)ccc2OC(C)(C)C1O)S(C)(=O)=O (stereo not drawn),148 to 150 °C
4,Cc1ccc(-c2nc(C)ccc2N2CCN(c3ccc(C)cc3)CC2)cc1,131 to 139 °C
5,O=C(NCCO)c1cccc(-c2ccc3c(c2)C(Oc2cccc(C(F)(F)F)c2)CC3)c1 (stereo not drawn),157 to 158 °C
6,COc1ccc2c(c1OC)CCC2=O,73 to 74 °C
7,C=Cc1ncc2[nH]c3cccc(OCc4ccccc4)c3c2c1COC,183 to 185 °C
8,O=c1oc(Nc2ccccc2F)nc2ccccc12,152 to 155 °C
9,Cc1c(Br)cc2[nH]c(=O)c(=O)[nH]c2c1[N+](=O)[O-],> 340 °C
10,COCCN(CCOC)Cc1nc(-c2ncn3c2[C@@H]2CCN2C(=O)c2c(Cl)cccc2-3)no1,188 to 190 °C
11,CC1=C(C(=O)O)C(c2cccc(Cl)c2Cl)C(c2nnco2)=C(C)N1 (stereo not drawn),187 to 190 °C
12,COCCN1CCc2ccc(OC)c(Nc3ncc(Cl)c(N[C@@H]4CCCC[C@H]4NS(C)(=O)=O)n3)c2CC1,93 to 100 °C
13,CC(C)(C)Nc1c(NCc2cc3cc([N+](=O)[O-])ccc3o2)c(=O)c1=O,> 300 °C
14,CS(=O)c1ncc2ccc(=O)n(-c3ccccc3)c2n1 (stereo not drawn),248 to 250 °C
15,CCCOc1ccccc1-c1cc(C)c(C(=O)OC)c(=O)[nH]1,167 to 169 °C
16,CCOC(=O)Cc1ccc(NC(=O)/C=C/c2cnn(C)c2-c2ccc(F)cc2)cc1,177 to 178 °C
17,COc1cc(OC)c(-c2cccs2)cc1/C=C/C(=O)c1ccc(S(=O)(=O)NCCCn2ccnc2)cc1,160 to 162 °C
18,CCC(=O)c1cc2n(c(=O)c1C)Cc1cc3ccccc3nc1-2,233 to 234 °C
19,COc1ccc(N2CCN(c3c(C)c(C=O)c4c(c3C)C(c3ccc(C)cc3)C(C)(C)O4)CC2)cc1 (stereo not drawn),175 to 177 °C
20,NC(=O)C(=O)Nc1nc(-c2cc(-c3ccccc3)on2)cs1,246 to 247 °C
21,Cc1c(S(=O)(=O)C[N+](=O)[O-])cc2c(c1C)OC(C)(C)CC2,98.5 to 99.5 °C
22,CNC(=O)CS(=O)(=O)c1ccccc1,106 to 109 °C
23,COC(=O)C1(O/N=C(\C(=O)OC(c2ccccc2)c2ccccc2)c2csc(NC(c3ccccc3)(c3ccccc3)c3ccccc3)n2)CCCCC1,180 to 182 °C
24,O=C(O)CCCCNc1ccccc1-c1ccccc1,73 to 75 °C
25,NC(=O)c1cc([N+](=O)[O-])cc([N+](=O)[O-])c1Cl,181 to 183 °C

row,SMILES,melting point
1,O=c1[nH]c2ncc(-c3ccc4[nH]ccc4c3)nc2n1CC1CCCCC1,343 to 346 °C
2,CC(C)(CI)c1cc(Cl)nnc1Cl,104 to 106 °C
3,O=C(c1ccc(Oc2ccc(Oc3ccc(C(=O)C(Cl)(Cl)Cl)cc3)cc2)cc1)C(Cl)(Cl)Cl,215 to 217 °C
4,Oc1cccc(-c2ccc(OC[C@H](O)CCc3cccnc3)cc2)c1,169 °C
5,CCOC(=O)c1sc(SC(C)C)c2c1CCc1nc(C)oc1-2,62 to 63 °C
6,CCOc1ccn2nc(SCc3ccccc3)nc2n1,115 to 117 °C
7,CN(Cc1cn[nH]c1)C1CCN(C(=O)c2ccc(Nc3nccc(Nc4ccc(F)cc4)n3)cc2)CC1,140 to 145 °C
8,COC(=O)c1ccc(N2C(=O)CCC2(CN=[N+]=[N-])COC(=O)c2ccccc2)c([N+](=O)[O-])c1 (stereo not drawn),214 to 215 °C
9,Nc1ccc(-c2cc(OCCCCCC(=O)O)nc(-c3ccccc3)c2)cc1,131 to 133 °C
10,CCOC(=O)C=C(C)NC(=O)Nc1cc(C(=O)OC(C)C)c(Cl)cc1F,147 to 150 °C
11,N#Cc1ccc([C@@H]2[C@@H]3C(=O)N(Cc4ccc5c(c4)OCO5)C(=O)[C@@H]3[C@H]3CCCN32)cc1 (racemic),61 to 63 °C
12,Cc1cc(C(=O)N2Cc3ccc(C(=O)N(CCO)CCO)n3Cc3ccccc32)ccc1-c1ccccc1C(F)(F)F,127 to 130 °C
13,CCS(=O)(=O)c1nnc(NN)s1,166 to 167 °C
14,N#Cc1ccc(NC(=O)c2c(O)ccc3ccccc23)c(OC(F)(F)F)c1,169 °C
15,O=C(NCC#CCN1CCCC1)N1c2ccccc2-c2noc3c2C1CCC3 (stereo not drawn),132 °C
16,Cc1ccc(S(=O)(=O)Sc2cc(C)c(CO)cc2C(C)(C)C)cc1,121 to 122 °C
17,O=C1CC(C(F)(F)F)CC(=O)N1c1cc(OS(=O)(=O)c2ccccc2)c(Cl)cc1F,214 to 215 °C
18,Cc1ccc(OS(=O)(=O)c2ccc(N3CCN(C)C3=O)cc2)c(C)c1,159 to 161 °C
19,O=C(Nc1cnns1)c1ccccc1,267 °C
20,CS(=O)(=O)OCCCCCCNc1ccc2nncn2n1,103 to 105 °C
21,O=C(c1cc(-c2ccc(Cl)c(Cl)c2)ccn1)N(O)Cc1ccccc1,125 to 130 °C
22,CC(C)c1[nH]n(-c2c(Cl)cc(Cl)cc2Cl)c2nc(Cc3ccc(NC(=O)OCCCN(C)C)cc3)nc(=O)c1-2,200 to 202 °C
23,COc1cccc([C@]23CCN(C)C(=O)[C@@H]2CCC2(C3)OCCO2)c1 (relative stereo),180 to 181 °C
24,Cc1c(NC(=O)c2cc3c(s2)CCCC3)cccc1-c1cn(C)c(=O)c(Nc2ccc(C3C(=O)N(C)CCN3C)cc2)n1 (stereo not drawn),155 to 156 °C
25,CC(C)(C)OC(=O)NC(Cc1ccccc1)C(O)CNCC(O)C(Cc1ccccc1)NC(=O)C1c2ccccc2CN1C=O (stereo not drawn),174 to 176 °C

row,SMILES,melting point
1,CCOC(=O)c1nc(C)n2c1CN=C(c1ccccc1Cl)c1cc([N+](=O)[O-])ccc1-2,233 to 234 °C
2,O=c1[nH]c2cc(Cl)c(F)c([N+](=O)[O-])c2[nH]c1=O,308 to 310 °C
3,COc1ccc(-c2ncc(NC(=O)OCc3ccccc3)c(=O)n2CC(=O)NC(Cc2ccccc2)C(=O)C(F)(F)F)cc1 (stereo not drawn),172 to 174 °C
4,COc1cc2c(cc1OC)C(C(S)(C#N)CC(=O)O)=NCC2 (stereo not drawn),173 to 175 °C
5,O=C(O)CC1Cc2ccccc2NC1=O (stereo not drawn),145 to 146 °C
6,O=C(Nc1ccccc1C(=O)c1ccc(OC(F)(F)F)cc1)c1ccncc1,112 to 114 °C
7,CC1(C)C=C(C#N)c2cc3nonc3cc2O1,136 to 138 °C
8,COc1ccc(C2(C#Cc3cccc(NC(=O)C(F)(F)F)c3)CCCC(=O)C2)cc1OC1CCCC1 (stereo not drawn),63 to 65 °C
9,COC(=O)c1cc(OCC=C(Cl)Cl)cc(Cl)c1OC,103 °C
10,COc1cc(CC(C#N)=CNc2ccccc2)cc(OC)c1NC(C)=O,165 to 167 °C
11,CCc1cc(CC)c(-c2c(OCCl)c(C)nn(C)c2=O)c(CC)c1,103 to 104 °C
12,CC1(CCC(N)=O)C(=O)CCC1=O,159 to 162 °C
13,Cc1ccc(C(=O)NCCO)cc1-n1c(C)cc(OCc2ccccc2CNC(=O)Nc2cc(C(C)(C)C)nn2-c2ccc(O)c(Cl)c2)c(Cl)c1=O,195 to 196 °C
14,CCCN(c1ccc(C(=O)OCC)cc1)c1nc(=O)c2cccnc2s1,155 to 157 °C
15,CCN(CC)C(=O)n1cc(F)c(=O)[nH]c1=O,157 to 160 °C
16,CSc1cc2cccc(NS(=O)(=O)c3cccs3)c2[nH]1,102 to 103 °C
17,O=C(CCl)c1ccc2c(c1)Cc1cc(C(=O)CCl)ccc1S2,175 to 177 °C
18,CC(C)C1C(=O)OC(=O)N1c1ccc(Cl)cc1 (stereo not drawn),137 to 138 °C
19,Cc1c(Cc2cccc(C(F)(F)F)c2)oc2cccc(-c3cccc(C(=O)O)c3)c12,169 to 170 °C
20,COc1ccc2cc(-c3nccn3C)ccc2n1,116 to 118 °C
21,Cc1nc(N)ncc1-c1ccncc1,215 to 217 °C
22,CN1C2CCC1[C@H](CO)[C@@H](c1cccs1)C2 (stereo partly drawn),154 to 158 °C
23,COc1cc(OCC(CO)CO)c(-c2cccs2)cc1C=CC(=O)c1ccc(C(=O)O)cc1,199 to 201 °C
24,COc1cnc(CCl)nc1O,87 °C
25,CC(C)=CCCC(C)=CCOc1ccc(C(=O)Nc2cccnc2)cc1,102 to 103 °C

row,SMILES,melting point
1,COC(=O)Cc1cc(OCc2ccc3ccccc3n2)ccc1Nc1ccccc1,106 to 107 °C
2,COCOc1cccc2cccc(C=O)c12,56 to 57 °C
3,COc1ccc2c(c1)c(Cc1cc(=O)n(C3CCCCC3)[nH]1)c(C)n2Cc1ccccc1,102 to 105 °C
4,CC(C)(C)OC(=O)N[C@@H](Cc1ccc(O)cc1)C(=O)N[C@H](Cc1ccccc1)C(=O)NCC(=O)O,105 to 110 °C
5,O=C1CC2(CCCC2)CC(=O)N1c1cccnc1,153 to 154 °C
6,COc1ccc(C(=O)C=Cc2ccccc2)cc1C=CC(=O)O,204 °C
7,O=C(O)c1ccn(-c2ccc(Cl)cc2)c1,222 to 224 °C
8,CCOc1ccc(C=C2N=C(C)OC2=O)cc1OCC,117 to 119 °C
9,O=C(Cc1ccncc1)NC(Cc1c[nH]c2ccccc12)C(O)CCc1cc(C(F)(F)F)cc(C(F)(F)F)c1 (stereo not drawn),213 to 214 °C
10,Cn1nnc2ccc(C(O)c3ccccc3)cc21 (stereo not drawn),145 °C
11,Cc1nc(N2CCNCC2)c2nc(-c3ccccc3)cc-2[nH]1,236 °C
12,Nc1cc2c(cc1Sc1ccccc1)CCC2,67 °C
13,CC1CCN(c2c(-c3c(F)cc(F)cc3F)c(Cl)nc3nc(SCc4ccccc4)nn23)CC1,147 °C
14,N=C(N)NCCSCc1nccs1,120 to 122 °C
15,Nc1nc(N)c2ncn(OCCCCP(=O)(O)O)c2n1,295 to 297 °C
16,Cc1ccccc1-c1ccc(C(=O)N2Cc3ccc(C(=O)NCCCc4ccccc4)n3Cc3ccccc32)cc1C,183 to 184 °C
17,O=c1cc(-c2ccncn2)nc2n1CCCCC2Br (racemic),117 to 119 °C
18,COCCOc1ccc(CCC(=O)O)c(Oc2ncc(C(F)(F)F)cc2Cl)c1,116 to 117 °C
19,Cc1cc(N)c([N+](=O)[O-])cc1OC(F)F,73 to 74 °C
20,C[C@H](NC(=O)COCCNC(=O)c1ccc(Cl)cc1)C(=O)N[C@H](CCC(=O)OCc1ccccc1)C(N)=O,141 to 143 °C
21,COC(=O)C(C(=O)OC)N(C(N)=O)c1ccc(C=NO)cc1,162 °C
22,CCOC(=O)c1cn(C2CCCCC2)c2cc(I)ccc2c1=O,169 to 171 °C
23,c1ccc(COc2ccc3ccc4cccc5ccc2c3c45)cc1,105 to 106 °C

# From a melting point compilation (Tetko et al.; mined from patent text by program, amines drawn as free bases though some values may be those of a salt)
